According to EP0345356A1, “PLATINUM COMPLEX AND THERAPEUTIC AGENT FOR MALIGNANT TUMOR” (TORAY INDUSTRIES, INC., priority 1987, dated 1989):
Values joined by “and” are separate entries in the source; they are usually repeats but may differ in a detail not shown here. Equal values may be shown once.

Key:
Slc:ICR mice = assay: Acute toxicity test in mice (LD50, Miller-Tainter method); assay type: in vivo; conditions: intraperitoneal, Slc:ICR mice (male), death rate on the 14th day
Procedure: Platinum complexes to be tested was administered intraperitoneally to Slc:ICR mice (male, 5 weeks old, 6 mice/group). Each complex was used in the form of a solution or suspension in a 0.05% "Tween 80" in saline. The LD50 value was calculated by the Miller-Tainter method from the death rate on the 14th day from the date of the administration.

[1] = test system: L1210 murine leukemia cells; assay: Antitumor activity against L1210 leukemia in mice; assay type: in vivo, CDF1 mice; conditions: for Survival days (mean ± SD) / T/C (%): given on 1st, 5th and 9th days after tumor inoculation; for Survival rate: number of 30 days survival mice / group
Procedure: L1210 murine leukemia cells which were subcultured in DBA/2 mouse were inoculated intraperitoneally into CDF1 mice at 10^5 cells/mouse. Each experimental group was composed of 6-10 mice (male, 6-weeks old). Each test compound was administered three times, i.e., on the 1st, 5th and 9th days after tumor inoculation. […] Each compound was dissolved or suspended in 0.05% "Tween 80" solution and administered in mice.

`NC1CCCCC1N.O=C([O-])CCc1ccc(O)cc1.O=C([O-])CCc1ccc(O)cc1.[Pt+2]` [XXXIV-1, Bis(3-(4-hydroxyphenyl)propionato)(trans-ℓ-dach)-platinum(II)] showed an LD50 values (Slc:ICR mice) of 90 mg/kg.

With “2-Furanacrylate-hydroxo(trans-i-dach)platinum(II) [XXXI-3]” the LD50 values (Slc:ICR mice) was >200 mg/kg.

`O=C(C=Cc1ccc(O)cc1)[O][Pt]1([OH])[NH]C2CCCCC2[NH]1` (stereo not drawn) [XXXI-4, β-(4-hydroxyphenyl)acrylate-hydroxo(trans-ℓ-dach)-platinum(II)] gave an LD50 values (Slc:ICR mice) of 117 mg/kg.

In the case of `CC(=O)N1c2ccccc2CC1C(=O)[O-].CC(=O)N1c2ccccc2CC1C(=O)[O-].NC1CCCCC1N.[Pt+2]` (racemic) [XXIII-2, Bis(DL-1-acetylindoline-2-carboxylato)(trans-ℓ-dach)platinum(II)], the “Survival days (mean ± SD)” value ([1]; Dose 1 mg/kg) is reported as 8.3 ± 0.5 days, the “T/C (%)” value ([1]; Dose 1 mg/kg) is reported as 102% and the Survival rate ([1]; Dose 1 mg/kg) is reported as 0/6. The “Survival days (mean ± SD)” value ([1]; Dose 10 mg/kg) was 12.7 ± 8.6 days, the “T/C (%)” value ([1]; Dose 10 mg/kg) was 157% and the Survival rate ([1]; Dose 10 mg/kg) was 1/6. The “Survival days (mean ± SD)” value ([1]; Dose 25 mg/kg) was 14.2 ± 3.3 days, the “T/C (%)” value ([1]; Dose 25 mg/kg) was 175% and the Survival rate ([1]; Dose 25 mg/kg) was 0/6. The “Survival days (mean ± SD)” value ([1]; Dose 50 mg/kg) was 13.3 ± 6.1 days, the “T/C (%)” value ([1]; Dose 50 mg/kg) was 164% and the Survival rate ([1]; Dose 50 mg/kg) was 0/6. The “Survival days (mean ± SD)” value ([1]; Dose 100 mg/kg) was 22.2 ± 9.0 days, the “T/C (%)” value ([1]; Dose 100 mg/kg) was 274% and the Survival rate ([1]; Dose 100 mg/kg) was 3/6. The “Survival days (mean ± SD)” value ([1]; Dose 200 mg/kg) was 14.0 ± 2.4 days, the “T/C (%)” value ([1]; Dose 200 mg/kg) was 173% and the Survival rate ([1]; Dose 200 mg/kg) was 0/6. The LD50 values (Slc:ICR mice) was >200 mg/kg.

`NC1CCCCC1N.O=C(CN1C(=O)c2ccccc2C1=O)NCC(=O)[O][Pt][O]C(=O)CNC(=O)CN1C(=O)c2ccccc2C1=O` [XXVI-1, Bis(phthaloylglycylglycinato)(trans-ℓ-dach)-platinum(II)] was tested, and the LD50 values (Slc:ICR mice) was >200 mg/kg.

With `CC1(C(=O)[O][Pt][O]C(=O)C2(C)CCC3(C)CCC4(C)C(=CC(=O)C5C6(C)CCC(O)C(C)(C)C6CCC54C)C3C2)CCC2(C)CCC3(C)C(=CC(=O)C4C5(C)CCC(O)C(C)(C)C5CCC43C)C2C1.NC1CCCCC1N.O.O.O.O` (stereo not drawn) [XXXV-1, Bis(β-glycyrrhetinato)(trans-ℓ-dach)platinum(II)-tetrahydrate] the LD50 values (Slc:ICR mice) was >150 mg/kg.

Work on `O=C([O][Pt]1([O]C(=O)c2ccc(N3C(=O)C=CC3=O)cc2)[NH]C2CCCCC2[NH]1)c1ccc(N2C(=O)C=CC2=O)cc1` (stereo not drawn) [XXVIII-1, Bis[N-(4-carboxyphenyl)maleimido](trans-ℓ-dach)-platinum(II)] yielded an LD50 values (Slc:ICR mice) of 70 mg/kg.

In the case of `NC1CCCCC1N.O=C([O-])C1CCCO1.O=C([O-])C1CCCO1.[Pt+2]` (racemic) [XXIV-2, Bis(DL-2-tetrahydrofurancarboxylato)(trans-ℓ-dach)-platinum(II)], the “Survival days (mean ± SD)” value ([1]; Dose 1 mg/kg) is reported as 11.5 ± 1.9 days, the “T/C (%)” value ([1]; Dose 1 mg/kg) is reported as 135% and the Survival rate ([1]; Dose 1 mg/kg) is reported as 0/6. For the same molecule, the “Survival days (mean ± SD)” value ([1]; Dose 10 mg/kg) was 20.3 ± 2.7 days, the “T/C (%)” value ([1]; Dose 10 mg/kg) was 239% and the Survival rate ([1]; Dose 10 mg/kg) was 0/6. The “Survival days (mean ± SD)” value ([1]; Dose 25 mg/kg) was 16.7 ± 4.3 days, the “T/C (%)” value ([1]; Dose 25 mg/kg) was 196% and the Survival rate ([1]; Dose 25 mg/kg) was 0/6. The “Survival days (mean ± SD)” value ([1]; Dose 50 mg/kg) was 10.2 ± 1.0 days, the “T/C (%)” value ([1]; Dose 50 mg/kg) was 120% and the Survival rate ([1]; Dose 50 mg/kg) was 0/6. The “Survival days (mean ± SD)” value ([1]; Dose 100 mg/kg) was 6.3 ± 0.8 days, the “T/C (%)” value ([1]; Dose 100 mg/kg) was 74% and the Survival rate ([1]; Dose 100 mg/kg) was 0/6. The “Survival days (mean ± SD)” value ([1]; Dose 200 mg/kg) was 4.8 ± 1.3 days, the “T/C (%)” value ([1]; Dose 200 mg/kg) was 57% and the Survival rate ([1]; Dose 200 mg/kg) was 0/6. For the same molecule, the LD50 values (Slc:ICR mice) was 45 mg/kg.

In the case of `NC1CCCCC1N.O=C([O-])c1ccco1.O=C([O-])c1ccco1.[Pt+2]` (stereo not drawn) [XXIV-1, Bis(2-furancarboxylato)(trans-ℓ-dach)platinum(II)], the “Survival days (mean ± SD)” value ([1]; Dose 1 mg/kg) is reported as 9.5 ± 0.8 days, the “T/C (%)” value ([1]; Dose 1 mg/kg) is reported as 117% and the Survival rate ([1]; Dose 1 mg/kg) is reported as 0/6. The “Survival days (mean ± SD)” value ([1]; Dose 10 mg/kg) was 14.2 ± 2.9 days, the “T/C (%)” value ([1]; Dose 10 mg/kg) was 175% and the Survival rate ([1]; Dose 10 mg/kg) was 0/6. For the same molecule, the “Survival days (mean ± SD)” value ([1]; Dose 25 mg/kg) was 20.2 ± 4.9 days, the “T/C (%)” value ([1]; Dose 25 mg/kg) was 249% and the Survival rate ([1]; Dose 25 mg/kg) was 1/6. The “Survival days (mean ± SD)” value ([1]; Dose 50 mg/kg) was 17.3 ± 6.3 days, the “T/C (%)” value ([1]; Dose 50 mg/kg) was 214% and the Survival rate ([1]; Dose 50 mg/kg) was 1/6. For the same molecule, the “Survival days (mean ± SD)” value ([1]; Dose 100 mg/kg) was 9.0 ± 1.5 days, the “T/C (%)” value ([1]; Dose 100 mg/kg) was 111% and the Survival rate ([1]; Dose 100 mg/kg) was 0/6. For the same molecule, the “Survival days (mean ± SD)” value ([1]; Dose 200 mg/kg) was 6.0 days, the “T/C (%)” value ([1]; Dose 200 mg/kg) was 74% and the Survival rate ([1]; Dose 200 mg/kg) was 0/6. For the same molecule, the LD50 values (Slc:ICR mice) was 87 mg/kg.

For `CC1(C)CC(=O)C=C(C(=O)[O-])O1.CC1(C)CC(=O)C=C(C(=O)[O-])O1.NC1CCCCC1N.[Pt+2]` [XXV-1, bis(3,4-dihydro-2,2-dimethyl-4-oxo-2H-pyrane-6-carboxylato) (trans-k-dach)platinum(II)], the LD50 values (Slc:ICR mice) was 192 mg/kg.

“2-Propenylacrylate-hydroxo(trans-ℓ-dach)platinum(II) [XXXI-2]” was tested, and the LD50 values (Slc:ICR mice) was >200 mg/kg.

For `CCOC(=O)CNC(=O)C=CC(=O)[O-].NC1CCCCC1N.[OH-].[Pt+2]` [XXIX-1, N-(ethoxycarbonylmethyl)maleamido-hydroxo(trans-ℓ- dach)platinum(II)], the LD50 values (Slc:ICR mice) was >200 mg/kg.

For `N.N.[Cl][Pt][Cl]` [C D D P, cis-diamminedichloro platinum(II), reference compound], the “Survival days (mean ± SD)” value ([1]; Dose 0.5 mg/kg) was 18.9 ± 5.8 days, the “T/C (%)” value ([1]; Dose 0.5 mg/kg) was 225% and the Survival rate ([1]; Dose 0.5 mg/kg) was 0/6. For the same molecule, the “Survival days (mean ± SD)” value ([1]; Dose 2.5 mg/kg, 2.5 mg/kg) was 14.5 ± 2.5 days and 15.5 ± 1.4 days and 13.0 ± 3.1 days and 14.8 ± 2.7 days, the “T/C (%)” value ([1]; Dose 2.5 mg/kg, 2.5 mg/kg) was 175% and 191% and 181% and the Survival rate ([1]; Dose 2.5 mg/kg) was 0/6. The “Survival days (mean ± SD)” value ([1]; Dose 5 mg/kg, 5 mg/kg) was 16.3 ± 1.2 days and 18.2 ± 0.4 days and 18.8 ± 4.3 days, the “T/C (%)” value ([1]; Dose 5 mg/kg, 5 mg/kg) was 201% and 214% and 232% and the Survival rate ([1]; Dose 5 mg/kg) was 0/6. The “Survival days (mean ± SD)” value ([1]; Dose 7.5 mg/kg, 7.5 mg/kg) was 19.0 ± 8.7 days and 19.2 ± 3.0 days and 20.2 ± 4.8 days and 18.7 ± 3.1 days, the “T/C (%)” value ([1]; Dose 7.5 mg/kg, 7.5 mg/kg) was 229% and 237% and 238% and 231% and the Survival rate ([1]; Dose 7.5 mg/kg, 7.5 mg/kg) was 1/6 and 0/6.

With `O=C(C=Cc1ccc(C(F)(F)F)cc1)[O][Pt]1([OH])[NH]C2CCCCC2[NH]1` (stereo not drawn) [XXXI-5, β-(4-trifluourmethylphenyl)acrylate-hydroxo(trans-ℓ-dach)platinum(II)] the LD50 values (Slc:ICR mice) was >200 mg/kg.

In the case of `COCCOCC(=O)[O][Pt][O]C(=O)COCCOC.NC1CCCCC1N` [XXVII-1, Bis(methoxyethoxymethylcarboxylato)(trans-ℓ-dach)-platinum(II)], the LD50 values (Slc:ICR mice) is reported as 50 mg/kg.

With `NC1CCCCC1N.O=C([O][Pt][O]C(=O)C1(O)CC(O)C(O)C(O)C1)C1(O)CC(O)C(O)C(O)C1` [XXXII-1, Bis(lR,3R,4R,5R-tetrahydroxycyclohexanecarboxylato)-(trans-ℓ-dach)platinum(II)] the LD50 values (Slc:ICR mice) was >200 mg/kg.

Work on “Bis(2-propenylacrylate)(trans-ℓ-dach)platinum(II) [XXX-1]” yielded an LD50 values (Slc:ICR mice) of 77 mg/kg.

In the case of `COC(=O)C(Cc1ccccc1)NC(=O)C=CC(=O)[O-].NC1CCCCC1N.[OH-].[Pt+2]` (stereo not drawn) [XXIX-2, N-(dℓ-2-phenyl-1-methoxycarbonylethyl)maleamido-hydroxo(trans-i-dach)platinum(II)], the LD50 values (Slc:ICR mice) is reported as >200 mg/kg.

For “N-(4-methoxycarbonylphenyl)maleamido-hydroxo(trans-A-dach)platinum(II) [XXIX-3]”, the LD50 values (Slc:ICR mice) was 48 mg/kg.

`NC1CCCCC1N.O=C([O-])C=CC(=O)Nc1cccc(O)c1.[OH-].[Pt+2]` [XXIX-4, N-(3-hydroxyphenyl)maleamido-hydroxo(trans-ℓ-dach)-platinum(II)] was tested, and the LD50 values (Slc:ICR mice) was 62 mg/kg.

In the case of `N.N.O=C([O-])C1(C(=O)[O-])CCC1.[Pt+2]` [C B D C A, cis-diammine-1,1-cyclobutanedicarboxylate platinum(II), reference compound], the “Survival days (mean ± SD)” value ([1]; Dose 1 mg/kg) is reported as 8.3 ± 0.5 days, the “T/C (%)” value ([1]; Dose 1 mg/kg) is reported as 98% and the Survival rate ([1]; Dose 1 mg/kg) is reported as 0/10. The “Survival days (mean ± SD)” value ([1]; Dose 10 mg/kg) was 9.3 ± 0.5 days, the “T/C (%)” value ([1]; Dose 10 mg/kg) was 109% and the Survival rate ([1]; Dose 10 mg/kg) was 0/10. The “Survival days (mean ± SD)” value ([1]; Dose 25 mg/kg) was 10.1 ± 1.3 days, the “T/C (%)” value ([1]; Dose 25 mg/kg) was 119% and the Survival rate ([1]; Dose 25 mg/kg) was 0/10. For the same molecule, the “Survival days (mean ± SD)” value ([1]; Dose 50 mg/kg) was 13.1 ± 2.3 days, the “T/C (%)” value ([1]; Dose 50 mg/kg) was 156% and the Survival rate ([1]; Dose 50 mg/kg) was 0/10. The “Survival days (mean ± SD)” value ([1]; Dose 100 mg/kg) was 14.1 ± 3.7 days, the “T/C (%)” value ([1]; Dose 100 mg/kg) was 166% and the Survival rate ([1]; Dose 100 mg/kg) was 0/10. The “Survival days (mean ± SD)” value ([1]; Dose 200 mg/kg) was 9.6 ± 0.7 days, the “T/C (%)” value ([1]; Dose 200 mg/kg) was 113% and the Survival rate ([1]; Dose 200 mg/kg) was 0/10.
